Measured values published in patent US4451450A, “Cationic compounds useful for making radiodiagnostic agents” (New England Nuclear Corporation, priority 1981, dated 1984).

Test system: Rabbit Heart
Assay: Imaging of rabbit heart (scintillation camera, intravenous injection)
Type: in vivo
Conditions: 2 mCi i.v., 2.5 Kg male New Zealand Albino rabbit, approximately 10 minutes after injection
Experimental: 2 mCi of Thallium-201 (as thallous chloride in physiological saline containing 0.9% benzyl alcohol) is injected intravenously into a 2.5 Kg male New Zealand Albino rabbit. The rabbit is positioned under a Searle Pho-Gamma scintillation camera in such a way that the heart and lung area are covered by the field of view.
Greater than 1 mCi of the ^99m Tc-labelled product of Example 3 is injected into a rabbit and imaged as in Example 16.

Which “image of the heart (reference Tl-201)” value does the source give for Thallium-201 here?
The value was “sufficient counts are accumulated to produce an image of the heart analogous to that seen in clinical studies of humans”.
